Test results as given in patent US11492589B2, “Lactobacillus plantarum CJLP475 strain having antiviral and immunomodulatory effects and composition comprising the same” (CJ CHEILJEDANG CORPORATION, priority 2018, dated 2022).

tested on: Lactobacillus plantarum CJLP475 strain; experiment: Antibiotic susceptibility test with antibiotic discs; format: cell-based; details: antibiotic discs on solid Mueller Hinton II medium, 37° C., 24 hours
Method: The CJLP475 strain was inoculated into a liquid MRS medium and subjected to a static culture at 37° C. for 24 hours. The thus-cultured bacteria were soaked in sterilized cotton swabs and smeared on a solid Mueller Hinton II medium (Difco), and then antibiotic discs were placed on the medium and incubated at 37° C. for 24 hours. Ampicillin, clindamycin, gentamicin, kanamycin, erythromycin, ampicillin/sulbactam, chloramphenicol, and streptomycin discs (Oxoid, UK) were used as antibiotic discs for the antibiotic test.

| Compound | Radius of Growth Inhibition Area Centered Around Antibiotics [mm] |
| --- | --- |
| Ampicillin/Sulbactam [SAM20 (Ampicillin/Sulbactam)] | 8 |
| CC[C@H]1OC(=O)[C@H](C)[C@@H](O[C@H]2C[C@@](C)(OC)[C@@H](O)[C@H](C)O2)[C@H](C)[C@@H](O[C@@H]2O[C@H](C)C[C@H](N(C)C)[C@H]2O)[C@](C)(O)C[C@@H](C)C(=O)[C@H](C)[C@@H](O)[C@]1(C)O [E15 (Erythromycin), Erythromycin] | 9 |
| CC1(C)S[C@@H]2[C@H](NC(=O)[C@H](N)c3ccccc3)C(=O)N2[C@H]1C(=O)O [Amp10 (Ampicillin), Ampicillin] | 7 |
| CCC[C@@H]1C[C@@H](C(=O)N[C@@H]([C@H]2O[C@H](SC)[C@H](O)[C@@H](O)[C@H]2O)[C@H](C)Cl)N(C)C1 [C30 (Clindamycin), Clindamycin] | 8 |
| NC[C@H]1O[C@H](O[C@H]2[C@H](O)[C@@H](O[C@H]3O[C@H](CO)[C@@H](O)[C@H](N)[C@H]3O)[C@H](N)C[C@@H]2N)[C@H](O)[C@@H](O)[C@@H]1O [K30 (Kanamycin), Kanamycin] | 1.5 |
| O=C(N[C@H](CO)[C@H](O)c1ccc([N+](=O)[O-])cc1)C(Cl)Cl [S10 (Chloramphenicol), Chloramphenicol] | 3 |
| Gentamicin [CN120 (Gentamicin)] | 9 |
| [H]/N=C(/N)N[C@H]1[C@H](O)[C@@H](O)[C@H](O[C@@H]2O[C@@H](C)[C@](O)(C=O)[C@H]2O[C@@H]2O[C@@H](CO)[C@H](O)[C@@H](O)[C@@H]2NC)[C@@H](N/C(N)=N\[H])[C@@H]1O [DA2 (Streptomycin), Streptomycin] | 4 |
